Data reported in patent publication US20100197714A1, “SPIRO-PYRANO-PYRAZOLE DERIVATIVES” (priority 2007, published 2010).

Columns and labels:
σ1-receptor [1] = target: T1, σ1-receptor (Cavia porcellus, UniProt Q60492); experiment: Sigma 1 (Version B) radioligand binding, [3H]-(+)-pentazocine, guinea pig brain preparation; parameters: the σ1-receptor preparation was prepared from guinea pig brain; from tissue; host or cells: guinea pig brain membrane homogenate
Description: In brief the σ1-receptor preparation was prepared from guinea pig brain. The brains were homogenized in 5 to 6 times of volume sucrose solution (0.32M) and homogenized. The homogenate was centrifuged at 2900 rpm, 4° C., 10 min). the supernatant was centrifuged again (23500×g, 4° C., 20 min). The pellet was resuspended in Tris-buffer, incubated for 30 min at room temperature and centrifuged f (23500×g, 4° C., 20 min). The pellet was resuspended in cold TRIS-buffer and homogenized. Then the protein content was measured (approx. 1.5 mg/mL) and the homogenate frozen at −80° C. for later use.
The radioligand used was […]-(+)-Pentazocin in TRIS-buffer. In a volume of 200 μL 50 μL TRIS-buffer, 50 μL compound solution of varying concentration, 50 μL radioligand-solution (8 nM; resulting in 2 nM in the assay) and finally 50 μL of receptor preparation (approx. 1.5 mg/mL) were given into a well of a microplate equipped with a filter. The plate was closed and stirred for 2.5 h at 37° C. and 500 rpm. Following that the solvents were removed by a harvester through the filter. After rinsing with H2O the filter was measured in a scintillation counter ([^3H]-protocol).

σ2-receptor = target: T2, σ2-receptor (Rattus norvegicus, UniProt Q5U3Y7); experiment: Sigma 2 (Version B) radioligand binding, [3H]-ditolylguanidine, rat liver preparation, σ1 sites masked with (+)-pentazocine; conditions: for inhibition at 1 µM: compound at 1 μM; for Ki: [3H]-ditolylguanidine 3 nM
T2 construct: the σ2-Receptorpreparation was prepared from rat liver; from tissue; host or cells: rat liver membrane homogenate
T2 sequence (Q5U3Y7 1-176): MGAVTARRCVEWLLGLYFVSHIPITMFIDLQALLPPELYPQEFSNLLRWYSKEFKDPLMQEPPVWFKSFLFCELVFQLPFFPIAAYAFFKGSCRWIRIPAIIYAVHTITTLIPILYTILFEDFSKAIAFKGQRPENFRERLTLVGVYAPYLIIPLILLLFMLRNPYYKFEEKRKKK
Description: In brief the σ2-Receptorpreparation was prepared from rat liver. The livers were homogenized in 5 to 6 times of volume sucrose solution (0.32M) and homogenized. The homogenate was centrifuged at 2900 rpm, 4° C., 10 min). the supernatant was centrifuged again (31000×g, 4° C., 20 min). The pellet was resuspended in TRIS-buffer, incubated for 30 min at room temperature while stirring and centrifuged f (31000×g, 4° C., 20 min). The pellet was resuspended in cold TRIS-buffer pH 8 and homogenized. Then the protein content was measured (approx. 2 mg/mL) and the homogenate frozen at −80° C. for later use.
The radioligand used was [^3H]-Ditolylguanidin in TRIS-buffer pH 8. The σ1-receptor binding sites were masked through (+)-Pentazocin-solution in TRIS-Puffer pH 8.
In a volume of 200 μL 50 μL compound solution of varying concentration, 50 μL (+)-Pentazocin-solution (2 μM; resulting in 500 nM in the assay), 50 μL radioligand-solution (12 nM; resulting in 3 nM in the assay) and finally 50 μL of receptor preparation (approx. 2 mg/mL) were given into a well of a microplate equipped with a filter. The plate was closed and stirred for 2 h at room temperature and 500 rpm. Following that the solvents were removed by a harvester through the filter. After rinsing with H2O the filter was measured in a scintillation counter ([^3H]-protocol).

σ1-receptor [2] = target: T1, σ1-receptor; experiment: Sigma-1 (Version A) radioligand binding, [3H](+)-pentazocine, guinea pig brain membranes
Description: Brain membrane preparation and binding assays for the σ1-receptor were performed as described (DeHaven-Hudkins et al., 1992) with some modifications. In brief, guinea pig brains were homogenized in 10 vols. […] The homogenate was centrifuged at 1000 g for 10 min at 4° C. and the supernatants collected and centrifuged again at 48000 g for 15 min at 4° C.
Each assay tube contained 10 μL of [^3H](+)-pentazocine (final concentration of 0.5 nM), 900 μL of the tissue suspension to a final assay volume of 1 mL and a final tissue concentration of approximately 30 mg tissue net weight/mL. […] All tubes were incubated at 37° C. for 150 min before termination of the reaction by rapid filtration over Schleicher & Schuell GF 3362 glass fibre filters [previously soaked in a solution of 0.5% polyethylenimine for at least 1 h]. […] Following addition of scintillation cocktail, the samples were allowed to equilibrate overnight. The amount of bound radioactivity was determined by liquid scintillation spectrometry using a Wallac Winspectral 1414 liquid scintillation counter.

[3] = version B, guinea pig brain, [3H]-(+)-pentazocine 2 nM, read-out: Binding σ1 Ki

T1 sequence (Q60492 whole entry): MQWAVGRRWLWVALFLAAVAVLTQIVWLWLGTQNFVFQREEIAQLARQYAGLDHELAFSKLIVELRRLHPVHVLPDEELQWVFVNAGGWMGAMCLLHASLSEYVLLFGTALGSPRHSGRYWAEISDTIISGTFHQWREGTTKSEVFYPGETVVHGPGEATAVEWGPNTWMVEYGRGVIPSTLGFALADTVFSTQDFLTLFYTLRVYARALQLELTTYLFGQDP

Compound | Ki (σ1-receptor [1]) [nM] | inhibition at 1 µM (σ2-receptor) [%] | Ki (σ1-receptor [1]; [3]) [nM] | Ki (σ2-receptor) [nM] | Ki (σ1-receptor [2]) [nM]
COC1Cc2c(cnn2C)C2(CCN(Cc3ccccc3)CC2)O1 (stereo not drawn) [Example 22, 1-Benzyl-6′-methoxy-1′-methyl-6′,7′-dihydro-1′H-spiro[piperidin-4,4′-pyrano[4,3-c]pyrazole]] | 21.4 | 0 |  |  | 
COC1Cc2c(cnn2-c2ccccc2)C2(CCN(Cc3ccccc3)CC2)O1 (stereo not drawn) [Example 5, 1-Benzyl-6′-methoxy-1′-phenyl-6′,7′-dihydro-1′H-spiro[piperidin-4,4′-pyrano[4,3-c]pyrazole]] | 1.46 | 22 |  |  | 
CC(C)CCN1CCC2(CC1)OCCc1c2cnn1C [Example 39, 1-Isopentyl-1′-methyl-6′,7′-dihydro-1′H-spiro[piperidin-4,4′-pyrano[4,3-c]pyrazole]] |  | 27 | 29.9 |  | 
COC1Cc2c(cnn2-c2ccccc2)C2(CCN(Cc3ccco3)CC2)O1 (stereo not drawn) [Example 19, 1-(Furan-2-ylmethyl)-6′-methoxy-1′-phenyl-6′,7′-dihydro-1′H-spiro[piperidin-4,4′-pyrano[4,3-c]pyrazole]] | 2.21 |  |  | 5220 | 3.8
CCCCN1CCC2(CC1)OC(OC)Cc1c2cnn1-c1ccccc1 (stereo not drawn) [Example 9, 1-Butyl-6′-methoxy-1′-phenyl-6′,7′-dihydro-1′H-spiro[piperidin-4,4′-pyrano[4,3-c]pyrazole]] | 8.04 |  |  | 752 | 
CCCN1CCC2(CC1)OC(OC)Cc1c2cnn1-c1ccccc1 (stereo not drawn) [Example 7, 6′-Methoxy-1′-phenyl-1-propyl-6′,7′-dihydro-1′H-spiro[piperidin-4,4′-pyrano[4,3-c]pyrazole]] |  |  |  | 3030 | 
COC1Cc2c(cnn2-c2ccccc2)C2(CCN(CC(C)C)CC2)O1 (stereo not drawn) [Example 10, 1-Isobutyl-6′-methoxy-1′-phenyl-6′,7′-dihydro-1′H-spiro[piperidin-4,4′-pyrano[4,3-c]pyrazole]] |  |  |  | 933 | 9.4
Cn1ncc2c1CC(O)OC21CCN(Cc2ccccc2)CC1 (stereo not drawn) [Example 28, 1-Benzyl-1′-methyl-6′,7′-dihydro-1′H-spiro[piperidin-4,4′-pyrano[4,3-c]pyrazole]-6′-ol] | 190 | 21 |  |  | 
Cn1ncc2c1CCOC21CCN(CCCc2ccccc2)CC1 [Example 41] |  |  | 17.4 | 1070 | 
COC1Cc2c(cnn2C)C2(CCN(CCC(C)C)CC2)O1 (stereo not drawn) [Example 26, 1-Isopentyl-6′-methoxy-1′-methyl-6′,7′-dihydro-1′H-spiro[piperidin-4,4′-pyrano[4,3-c]pyrazole]] | 17.8 | 22 |  |  | 
COC1OC2(CCN(Cc3ccccc3)CC2)c2cnn(-c3ccccc3)c21 (stereo not drawn) [Example 3, 1-Benzyl-6′-methoxy-1′-phenyl-4′,6′-dihydro-1′H-spiro[piperidin-4,4′-furo[3,4-c]pyrazole]] |  |  |  | 1750 | 2.7
CC(C)=CCN1CCC2(CC1)OCCc1c2cnn1C [Example 40, 1-(Methylbut-2-en-1-yl)-1′-methyl-6′,7′-dihydro-1′H-spiro[piperidin-4,4′-pyrano[4,3-c]pyrazole]] |  | 49 |  |  | 
c1ccc(-n2ncc3c2CCOC32CCN(CC3CCCCC3)CC2)cc1 [Example 38, 1-(Cyclohexan-1-ylmethyl)-1-phenyl-6′,7′-dihydro-1′H-spiro[piperidin-4,4′-pyrano[4,3-c]pyrazole]] |  |  | 0.43 | 42.8 | 
COc1ccc(CN2CCC3(CC2)OC(OC)Cc2c3cnn2-c2ccccc2)cc1 (stereo not drawn) [Example 20, 6′-Methoxy-1-(4-methoxybenzyl)-1′-phenyl-6′,7′-dihydro-1′H-spiro[piperidin-4,4′-pyrano[4,3-c]pyrazole]] | 1.54 |  |  | 925 | 
COC1Cc2c(cnn2-c2ccccc2)C2(CCN(CCc3ccccc3)CC2)O1 (stereo not drawn) [Example 16, 6′-Methoxy-1′-phenyl-1-(2-phenylethyl)-6′,7′-dihydro-1′H-spiro[piperidin-4,4′-pyrano[4,3-c]pyrazole]] | 2.73 |  |  | 570 | 
COC1OC2(CCNCC2)c2cnn(-c3ccccc3)c21 (stereo not drawn) [Example 2, 6′-Methoxy-1′-phenyl-4′,6′-dihydro-1′H-spiro[piperidin-4,4′-furo[3,4-c]pyrazole]] |  | 12 | 1200 |  | 
C1=Cc2c(cnn2-c2ccccc2)C2(CCN(Cc3ccccc3)CC2)O1 [Example 33, 1-Benzyl-1′-phenyl-1′H-spiro[piperidin-4,4′-pyrano[4,3-c]pyrazole]] | 1.48 |  |  | 557 | 
Cn1ncc2c1C=COC21CCN(Cc2ccccc2)CC1 [Example 29, 1-Benzyl-1′-methyl-1′H-spiro[piperidin-4,4′-pyrano[4,3-c]pyrazole]] | 11.8 |  |  | 429 | 
Cn1ncc2c1CCOC21CCN(Cc2ccccc2)CC1 [Example 30, 1-Benzyl-1′-methyl-6′,7′-dihydro-1′H-spiro[piperidin-4,4′-pyrano[4,3-c]pyrazole]] | 9.18 |  |  | 191 | 
OC1Cc2c(cnn2-c2ccccc2)C2(CCN(Cc3ccccc3)CC2)O1 (stereo not drawn) [Example 32, 1-Benzyl-1′-phenyl-6′,7′-dihydro-1′H-spiro[piperidin-4,4′-pyrano[4,3-c]pyrazole]-6′-ol] | 27.1 | 41 |  |  | 
COC1Cc2c(cnn2C)C2(CCN(CCCc3ccccc3)CC2)O1 (stereo not drawn) [Example 24, 6′-Methoxy-1′-methyl-1-(3-phenylpropyl)-6′,7′-dihydro-1′H-spiro[piperidin-4,4′-pyrano[4,3-c]pyrazole]] | 92.7 |  |  | 1730 | 
COC1Cc2c(cnn2C)C2(CCN(Cc3ccc(F)cc3)CC2)O1 (stereo not drawn) [Example 25, 1-(4-Fluorbenzyl)-6′-methoxy-1′-methyl-6′,7′-dihydro-1′H-spiro[piperidin-4,4′-pyrano[4,3-c]pyrazole]] | 21.1 | 46 |  |  | 
CC(C)CCN1CCC2(CC1)OCCc1c2cnn1-c1ccccc1 [Example 35, 1-Isopentyl-1′-phenyl-6′,7′-dihydro-1′H-spiro[piperidin-4,4′-pyrano[4,3-c]pyrazole]] |  |  | 0.98 | 83.3 | 
c1ccc(CN2CCC3(CC2)OCCc2c3cnn2-c2ccccc2)cc1 [Example 34, 1-Benzyl-1′-phenyl-6′,7′-dihydro-1′H-spiro[piperidin-4,4′-pyrano[4,3-c]pyrazole]] | 1.71 |  |  | 773 | 
CCCCCN1CCC2(CC1)OC(OC)Cc1c2cnn1-c1ccccc1 (stereo not drawn) [Example 11, 6′-Methoxy-1-pentyl-1′-phenyl-6′,7′-dihydro-1′H-spiro[piperidin-4,4′-pyrano[4,3-c]pyrazole]] | 0.82 |  |  | 340 | 
CC(C)=CCN1CCC2(CC1)OCCc1c2cnn1-c1ccccc1 [Example 36, 1-(Methylbut-2-en-1-yl)-1′-phenyl-6′,7′-dihydro-1′H-spiro[piperidin-4,4′-pyrano[4,3-c]pyrazole]] | 0.97 |  |  | 269 | 
c1ccc(CCCN2CCC3(CC2)OCCc2c3cnn2-c2ccccc2)cc1 [Example 37, 1-Phenylpropyl-1′-phenyl-6′,7′-dihydro-1′H-spiro[piperidin-4,4′-pyrano[4,3-c]pyrazole]] |  |  |  | 102 | 
CCCN1CCC2(CC1)OC(OC)Cc1c2cnn1C (stereo not drawn) [Example 27, 6′-Methoxy-1′-methyl-1-propyl-6′,7′-dihydro-1′H-spiro[piperidin-4,4′-pyrano[4,3-c]pyrazole]] |  | 0 |  |  | 
COC1Cc2c(cnn2-c2ccccc2)C2(CCN(C(C)C)CC2)O1 (stereo not drawn) [Example 8, 1-Isopropyl-6′-methoxy-1′-phenyl-6′,7′-dihydro-1′H-spiro[piperidin-4,4′ pyrano[4,3-c]pyrazole]] |  |  |  | 3210 | > 100
COC1Cc2c(cnn2-c2ccccc2)C2(CCN(CCCc3ccccc3)CC2)O1 (stereo not drawn) [Example 17, 6′-Methoxy-1′-phenyl-1-(3-phenylpropyl)-6′,7′-dihydro-1′H-spiro[piperidin-4,4′-pyrano[4,3-c]pyrazole]] | 3.24 |  |  | 833 | 
